Article PMC11233548 (Communications Biology, 2024)
Non-standard residues stand in square brackets, D forms with d. Residues, ends and D or L forms follow the SMILES beside them. No end group written: not given here. long linker = not defined here; AEEA = NCCOCCOCC(=O)O

Legend:
H-RasG12V nanoclustering [1] = experiment: H-RasG12V nanoclustering-BRET in HEK cells; assay type: cell-based, human
A-RBD-D75A = experiment: BRET-titration Gal1/A-RBD-D75A; assay type: cell-based, human; conditions: versus wild-type, n = 3
Method: We employed the BRET2 system where RLuc8 and GFP2 luminophores were predominantly used as the donor and acceptor, respectively, with coelenterazine 400a as the substrate. A CLARIOstar plate reader from BMG Labtech was used for BRET and fluorescence intensity measurement. The BRET protocol was adapted as described by us[73].
In brief, 150,000–200,000 HEK293-EBNA cells were seeded per well of a 12-well plate and grown for 24 h in 1 mL of complete DMEM. The next day, the cells were transfected with ~1 µg of plasmid DNA per well using a 3 µL jetPRIME transfection reagent. For the donor saturation titration, 25 ng of the donor plasmid was transfected with an acceptor plasmid concentration ranging from 25 to 1000 ng. […]
First, the fluorescence intensity of GFP2 was measured (λexcitation 405 ± 10 nm and λemission 515 ± 10 nm), which is directly proportional to the acceptor expression (RFU). Then 10 µM of coelenterazine 400a (GoldBio, #C-320) was added to the cells, and BRET readings were recorded simultaneously at λemission 410 ± 40 nm (RLU) and 515 ± 15 nm (BRET signal). Emission intensity measured at 410 nm is directly proportional to the donor expression. The raw BRET ratio was calculated as the ratio of BRET signal/RLU. […] The relative expression was calculated as the ratio of RFU/RLU. […]

B-Raf [2] = experiment: Split-luciferase KinCon B-Raf biosensor; assay type: cell-based; conditions: expression 48 h, HEK cells; n = 3
Method: HEK 293-EBNA cells were seeded in a 12-well plate (Greiner Bio-One, #665180) in 1 ml complete DMEM and grown for 24 h. The next day 0.5 µg of KinCon sensor plasmid pcDNA-RlucF1-BRAF-RlucF2 was transfected along with 0.1–0.5 µg of modulator plasmid encoding either SNAP-H-RasG12V or Gal1) using jetPRIME as per manufacturer protocol; pcDNA3.1(−) Thermo Fisher Scientific, #V79520) was used to buffer the total amount of plasmid load per well to 1 µg. After 48 h of expression cells were collected and washed in PBS. Cells from one well of the 12-well plate were resuspended in 200 µL of PBS and 2× 90 µL were pipetted into a white 96-well plate (Nunc, Thermo Fisher Scientific, #236108). Then coelenterazine h was added to a final concentration of 5 µM and the luminescence signal at 480 ± 10 nm was collected for 10 s. The basically background-free signal was normalized against the signal without modulator plasmid.

RBD of Raf proteins = molecular target: RBD of Raf proteins; parameters: method as in PMID 27087647; conditions: direct binding; read-out: KD, Gal1 to RBD of Raf proteins; cited from earlier work
Gal1 [3] = molecular target: Gal1; parameters: method as in PMID 24569991, PMID 7890630; conditions: dimerization; read-out: KD, Gal1 dimer; cited from earlier work
[4] = tested on: MIA PaCa-2 cells (pERK, pAkt); experiment: Immunoblot of EGF-induced pERK and pAkt in MIA PaCa-2; assay type: cell-based, human; conditions: 2 h, EGF 200 ng/mL 10 min; KRAS-G12C; n = 3–8
T24 cells = experiment: 2D cell viability (alamarBlue), T24; assay type: cell-based, human; conditions: 48 h treatment, n = 3
Gal1/B-RBD = Gal1/B-RBD (Homo sapiens, UniProt P15056); experiment: Gal1/B-RBD BRET in HEK cells; assay type: cell-based
Chain of Gal1/B-RBD (P15056 155-227): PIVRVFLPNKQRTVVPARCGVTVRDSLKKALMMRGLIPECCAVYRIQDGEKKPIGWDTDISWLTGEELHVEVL

Hs 578 T cells = experiment: 2D cell viability (alamarBlue), Hs 578 T; assay type: cell-based, human; conditions: 48 h treatment, n = 3
MIA PaCa-2 cells = experiment: 2D cell viability (alamarBlue), MIA PaCa-2; assay type: cell-based, human; conditions: 48 h treatment, n = 3
[5] = tested on: Hs 578 T cells (pERK, pAkt); experiment: Immunoblot of EGF-induced pERK and pAkt in Hs 578 T; assay type: cell-based, human; conditions: 1–20 µM, 2 h, EGF 200 ng/mL 10 min; HRAS-G12D; n = 3–8
[6] = tested on: Hs 578 T, T24, MIA PaCa-2, and HEK cells; experiment: Drug sensitivity score DSS3 from viability data; assay type: cell-based, human; conditions: 48 h; Fig. 6e
Method: The cells were seeded in low attachment, suspension cell culture 96-well plates (Greiner, #655185). About 2000 T24, MIA PaCa-2, and HEK cells and 5000 Hs 578 T cells were seeded per well in a 50 µL complete growth medium. 24 h later, the cells were treated with 50 µL 2× peptide diluted in the growth medium or 0.2% (v/v) of the positive control, benzethonium chloride stock at 100 mM in H2O (Sigma-Aldrich, #B8879). […] Using a CLARIOstar plate reader the fluorescence signal (λexcitation 560 ± 5 nm and λemission 590 ± 5 nm) was recorded. The florescence signal was normalized against the negative control, here DMSO in buffer, representing 100% viability. Additionally, the data was analyzed using Breeze 2.0 to determine a drug sensitivity score (DSS), a normalized area under the curve (AUC). Here we plot only one of the output values from the Breeze pipeline, the DSS3 value, which was calculated as DSS3=DSS2x2−x1/Cmax−Cmin where DSS2 is given by the equation DSS2=DSS1/loga
And DSS1 is given by the equation DSS1=AUC−t(x2−x1)/(100−t)(Cmax−Cmin)
After dose–response inhibition data fitting with a logistic function, the area under the curve (AUC) was determined. The activity threshold (t) was set to ≥10%. The maximum (Cmax) and minimum (Cmin) concentrations used for screening of the inhibitors, with Cmax = x2 and x1 concentration with minimal activity t. […]

T24 cells (pERK, pAkt) = assay type: cell-based, human; conditions: n = 3–8
HEK cells (pERK, pAkt) = assay type: cell-based, human; conditions: 2 h, EGF 200 ng/mL 10 min; n = 3–8
C-Raf = experiment: SNAP-tag mediated pull-down from HEK lysates, C-Raf; assay type: binding, human cell line HEK293-EBNA; conditions: lysates of Gal1-transfected HEK cells; n = 4
Method: (§1) For the pull-down of interactors of L5UR-SNAP and control constructs, HEK293 EBNA cells were plated on 10 cm dishes. For each dish, 5 µg of pDest305-CMV-hGal1 and pEF-L5UR-SNAP, pEF-mutL5UR-SNAP, or pEF-SNAP were transfected. Transfection was done at ≥70% confluency using 2 µL jetPRIME per 1 µg DNA transfected, according to the manufacturer’s instructions. After about 24 h, the growth medium was removed, cells were rinsed twice in cold PBS, and each dish was lysed in 1 mL lysis buffer, consisting of 20 mM HEPES pH 7.5, 4 mM β-mercaptoethanol, 0.05% Igepal, 1× Protease Inhibitor (Thermo Scientific, #A32955) and 1× PhosSTOP (Roche, #04 906 837 001). The cells were scraped and transferred to Eppendorf tubes, then incubated on ice for 30 min, with occasional mixing by inverting the tube. The lysate was cleared by centrifugation for 15 min at 4 °C and 16,363 rcf. Cleared lysate was transferred to a clean tube, 15 µL sample was withdrawn as “Input” for Western blot analysis, and 25 µL of SNAP-capture magnetic beads (New England Biolabs, #S9145S) suspension (diluted 1:1 in lysis buffer) was added. The samples were further incubated for 2 h at room temperature (20–25 °C) on a rotating wheel. […] The samples were resolved on 4–20% SDS-PAGE gels in Tris-Gly buffer and analyzed by Western blotting. […]

H-RasG12V nanoclustering [7] = experiment: Electron microscopy-based analysis of H-RasG12V nanoclustering in BHK cells; assay type: cell-based, baby hamster kidney (BHK) cells; conditions: membrane sheets of Gal1-expressing BHK cells; n = 15
Source text: To quantify the nanoclustering of a component integral to the plasma membrane (PM), the apical PM sheets of baby hamster kidney (BHK) cells expressing a GFP-tagged H-Ras construct were fixed with 4% (w/v) PFA and 0.1% (w/v) glutaraldehyde. GFP anchored to the PM sheets was probed with 4.5 nm gold particles pre-coupled to anti-GFP antibody. Following embedment with methyl cellulose, the PM sheets were imaged using transmission electron microscopy (JEOL JEM-1400). Using the coordinates of every gold particle, Ripley’s K-function calculated the extent of nanoclustering of gold particles within a selected 1 μm^2 PM area: K(r)=An^−2∑i≠jwij1(∥xi−xj∥≤r) Lr−r=Kr/π−r where n gold particles populate in an intact area of A; r is the length between 1 and 240 nm; || ^. || indicates Euclidean distance where 1(^.) = 1 if ||xi − xj|| ≤ r and 1(^.) = 0 if ||xi − xj|| > r; K(r) specifies the univariate K-function. wij^−1 is a parameter used for an unbiased edge correction and characterizes the proportion of the circumference of a circle that has the center at xi and radius ||xi-xj||. Monte Carlo simulations estimate the 99% confidence interval (99% C.I.), which is then used to linearly transform K(r) into L(r) − r. On a nanoclustering curve of L(r) − r vs. r, the peak L(r) − r value is used as summary statistics for nanoclustering and is termed as Lmax. […]

RASSF7 = experiment: SNAP-tag mediated pull-down from HEK lysates, RASSF7; assay type: binding, human cell line HEK293-EBNA; conditions: lysates of Gal1-transfected HEK cells; n = 4
Method: as §1

[8] = tested on: catalytic subunit of PI3Kα; experiment: SNAP-tag mediated pull-down from HEK lysates, PI3Kα catalytic subunit; assay type: binding, human cell line HEK293-EBNA; conditions: lysates of Gal1-transfected HEK cells; n = 4
Method: as §1

ASPP2 = experiment: SNAP-tag mediated pull-down from HEK lysates, ASPP2; assay type: binding, human cell line HEK293-EBNA; conditions: lysates of Gal1-transfected HEK cells; n = 4
Method: as §1

Gal1 [9] = experiment: SNAP-tag mediated pull-down from HEK lysates, Gal1; assay type: binding, human cell line HEK293-EBNA; conditions: lysates of Gal1-transfected HEK cells
Method: as §1

B-Raf [10] = experiment: SNAP-tag mediated pull-down from HEK lysates, B-Raf; assay type: binding, human cell line HEK293-EBNA; conditions: lysates of Gal1-transfected HEK cells; n = 4
Method: as §1

Gal1: galectin-1, H-Ras nanocluster scaffold
effect of Gal1 expression on H-RasG12V nanoclustering-BRET (H-RasG12V nanoclustering [1]; expression 48 h, donor:acceptor 1:5, n = 4): increased H-RasG12V nanoclustering-BRET in a dose-dependent manner | BRETtop, Gal1/A-RBD-D75A (A-RBD-D75A): significantly reduced | luminescence signal of KinCon B-Raf biosensor (B-Raf [2]): likewise reduced the luminescence signal | Kd (RBD of Raf proteins): 0.106 ± 0.04 µM | Kd (Gal1 [3]): 7 µM

CC(=O)NCC(=O)N[C@@H](CCCNC(=N)N)C(=O)N[C@@H](CCCCN)C(=O)N[C@@H](CCCCN)C(=O)N[C@@H](CCCNC(=N)N)C(=O)N[C@@H](CCCNC(=N)N)C(=O)N[C@@H](CCC(N)=O)C(=O)N[C@@H](CCCNC(=N)N)C(=O)N[C@@H](CCCNC(=N)N)C(=O)N[C@@H](CCCNC(=N)N)C(=O)N1CCC[C@H]1C(=O)N[C@@H](CCC(N)=O)C(=O)NCCOCCOCC(=O)N[C@@H](CO)C(=O)N[C@@H](CCCNC(=N)N)C(=O)N[C@@H](CO)C(=O)N[C@@H](CO)C(=O)N[C@@H](CC(C)C)C(=O)N[C@@H](CCCNC(=N)N)C(=O)N[C@@H](CO)C(=O)N[C@@H](CCCNC(=N)N)C(=O)N[C@@H](Cc1c[nH]c2ccccc12)C(=O)NCC(=O)N[C@@H](CCCNC(=N)N)C(=O)N[C@@H](Cc1ccccc1)C(=O)N[C@@H](CC(C)C)C(=O)N[C@@H](CC(C)C)C(=O)N[C@@H](CCC(N)=O)C(=O)N[C@@H](CCCNC(=N)N)C(=O)NCC(=O)N[C@@H](CO)C(=O)N[C@@H](Cc1c[nH]c2ccccc12)C(=O)N[C@H](C(=O)NCC(=O)N1CCC[C@H]1C(=O)N[C@@H](CCCNC(=N)N)C(N)=O)[C@@H](C)O [TAT-L5URcore] (Ac-GRKKRRQRRRPQ[AEEA]SRSSLRSRWGRFLLQRGSWTGPR-NH2)
pAkt levels, MIA PaCa-2 [4]: pAkt-levels were reduced at 20 µM | pERK levels, MIA PaCa-2 [4]: pERK remained unaffected | proliferation/viability, T24 (T24 cells): specifically reduced by TAT-L5URcore | EC50 (Gal1/B-RBD): 16 ± 1 µM | proliferation/viability, Hs 578 T (Hs 578 T cells): specifically reduced by TAT-L5URcore | EC50 (H-RasG12V nanoclustering [1]; peptide added to HEK cells, 2 h incubation, 37 °C, donor:acceptor 1:5, 200 ng Gal1 plasmid, n = 3): 19 ± 1 µM | proliferation/viability, MIA PaCa-2 (MIA PaCa-2 cells): this was also observed for KRAS-mutant MIA PaCa-2 | EGF-induced pAkt levels, Hs 578 T [5]: reduced EGF-induced cellular pERK-and pAkt-levels in a dose-dependent manner | EGF-induced pERK levels, Hs 578 T [5]: reduced EGF-induced cellular pERK-and pAkt-levels in a dose-dependent manner | anti-proliferative effect (DSS3) [6]: higher anti-proliferative effect of TAT-L5URcore as compared to TAT-mutL5URcore | EGF-induced pAkt levels, T24 (T24 cells (pERK, pAkt)): reduced EGF-induced cellular pERK-and pAkt-levels in a dose-dependent manner | EGF-induced pERK levels, T24 (T24 cells (pERK, pAkt)): reduced EGF-induced cellular pERK-and pAkt-levels in a dose-dependent manner | pAkt levels, HEK (HEK cells (pERK, pAkt)): slightly induced by TAT-L5URcore, as were pAkt-levels | pERK levels, HEK (HEK cells (pERK, pAkt)): slightly induced

L5UR-SNAP: genetic construct with SNAP-tag added via a long linker to the C-terminus of L5UR (LLRPTAASQSRALGPGAPGGSSRSSLRSRWGRFLLQRGSWTGPRCWPRGFQS-{long linker-SNAP‑tag}; reading uncertain)
pull-down of C-Raf (C-Raf): pulled down | disruption of H-RasG12V nanoclustering (Lmax) (H-RasG12V nanoclustering [7]): The disruption of H-RasG12V nanoclustering specifically by L5UR-SNAP | effect of construct expression on Gal1/B-RBD BRET (Gal1/B-RBD; expression (48 h), donor:acceptor 1:10, HEK, n = 3): dose-dependently decreased BRET between Gal1 and the B-RBD | pull-down of RASSF7 (RASSF7): as were its two RA-domain containing interaction partners, RASSF7 and RASSF9 | reduction of H-RasG12V nanoclustering-BRET (H-RasG12V nanoclustering [1]; expression (48 h), co-transfection of 200 ng Gal1 plasmid, donor:acceptor 1:5, n = 3, Fig. 3c): ~ 33% | effect of construct expression on H-RasG12V nanoclustering-BRET (H-RasG12V nanoclustering [1]; expression (48 h), with co-transfection of 200 ng Gal1 plasmid, donor:acceptor 1:5, n = 3): decreased Gal1-enhanced H-RasG12V nanoclustering-BRET to a similar extent as the untagged L5UR | pull-down of catalytic subunit of PI3Kα [8]: pulled down | pull-down of ASPP2 (ASPP2): it was pulled down by L5UR-SNAP | pull-down of Gal1 (Gal1 [9]): does under those conditions not interact with Gal1 | pull-down of B-Raf (B-Raf [10]): pulled down
